Experimental data from ChEMBL document CHEMBL1201862, “PubChem BioAssay data set” (2004).
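Protocol summary: plate cells (96-well), add compound at 5 concentrations, incubate 48 h, interpolate endpoints linearly. The concentration for 50% growth inhibition is given as GI50.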 Activity calls are given as the source filed them. Cut-off read from the data, not from the text of the source: active = GI50 up to about 1.1 µM and inactive = higher.

Experiments:
Assay in all cases: DTP human tumour cell line panel, 48 h
[1] = test system: OVCAR-5
[2] = test system: HL-60
[3] = test system: OVCAR-3
[4] = test system: HT-29
[5] = test system: SF-539
[6] = test system: NCI-H522
[7] = test system: CCRF-CEM
[8] = test system: M14
[9] = test system: SK-OV-3
[10] = test system: A498
[11] = test system: KM12
[12] = test system: HOP-92
[13] = test system: HCT-15
[14] = test system: MCF7
[15] = test system: NCI-H23
[16] = test system: NCI/ADR-RES
[17] = test system: SF-295
[18] = test system: SW-620
[19] = test system: EKVX
[20] = test system: SN12C
[21] = test system: SK-MEL-28
[22] = test system: MDA-MB-231
[23] = test system: HCT-116
[24] = test system: MDA-MB-435
[25] = test system: RPMI-8226
[26] = test system: COLO 205
[27] = test system: CAKI-1
[28] = test system: SNB-75
[29] = test system: TK-10
[30] = test system: DU-145
[31] = test system: NCI-H460
[32] = test system: Hs-578T
[33] = test system: RXF 393
[34] = test system: UO-31
[35] = test system: T47D
[36] = test system: UACC-257
[37] = test system: SR
[38] = test system: SK-MEL-5
[39] = test system: OVCAR-8
[40] = test system: A549
[41] = test system: IGROV-1
[42] = test system: PC-3
[43] = test system: SK-MEL-2
[44] = test system: MOLT-4
[45] = test system: ACHN
[46] = test system: OVCAR-4
[47] = test system: K562
[48] = test system: UACC-62
[49] = test system: U-251
[50] = test system: NCI-H226
[51] = test system: SF-268
[52] = test system: SNB-19
[53] = test system: 786-0
[54] = test system: Malme-3M
[55] = test system: HCC 2998
[56] = test system: MDA-N
[57] = test system: HOP-62
[58] = test system: LOX IMVI

In the case of O=c1[nH]nc(N/N=C\c2ccc(Cl)cc2)c2ccccc12, the GI50 [1] is reported as 16.9 µM (inactive), the GI50 [2] is reported as > 100 µM (inactive) and the GI50 [3] is reported as 16 µM (inactive). For the same compound, the GI50 [4] was 29.5 µM (inactive), the GI50 [5] was 21.4 µM (inactive) and the GI50 [6] was 16.6 µM (inactive). For the same compound, the GI50 [7] was 44 µM (inactive), the GI50 [8] was 18.7 µM (inactive) and the GI50 [9] was 18.5 µM (inactive). The GI50 [10] was 30.3 µM (inactive), the GI50 [11] was 21 µM (inactive) and the GI50 [12] was 16.9 µM (inactive). For the same compound, the GI50 [13] was 17.9 µM, the GI50 [14] was 22.4 µM (inactive) and the GI50 [15] was 23 µM (inactive). The GI50 [16] was 19.6 µM (inactive), the GI50 [17] was 18.5 µM (inactive) and the GI50 [18] was 17.5 µM (inactive). The GI50 [19] was 31.3 µM (inactive), the GI50 [20] was 27.5 µM (inactive) and the GI50 [21] was 23.3 µM (inactive). For the same compound, the GI50 [22] was 22.3 µM (inactive), the GI50 [23] was 28.2 µM (inactive) and the GI50 [24] was 17.8 µM (inactive). The GI50 [25] was 25.7 µM (inactive), the GI50 [26] was 19.5 µM (inactive) and the GI50 [27] was 18.3 µM (inactive). The GI50 [28] was 22.6 µM (inactive), the GI50 [29] was 32.5 µM (inactive) and the GI50 [30] was 21.9 µM (inactive). The GI50 [31] was 20.3 µM (inactive), the GI50 [32] was 37 µM (inactive) and the GI50 [33] was 25.4 µM (inactive). The GI50 [34] was 18.6 µM (inactive), the GI50 [35] was 25.7 µM (inactive) and the GI50 [36] was 21.4 µM (inactive). For the same compound, the GI50 [37] was 3.9 µM (inactive), the GI50 [38] was 16.1 µM (inactive) and the GI50 [39] was 24.3 µM (inactive). For the same compound, the GI50 [40] was 20.1 µM (inactive), the GI50 [41] was 15.4 µM (inactive) and the GI50 [42] was 17.2 µM (inactive). For the same compound, the GI50 [43] was 17.2 µM (inactive), the GI50 [44] was 60.3 µM (inactive) and the GI50 [45] was 21.4 µM (inactive). The GI50 [46] was 52.7 µM (inactive), the GI50 [47] was 20.9 µM (inactive) and the GI50 [48] was 20.5 µM (inactive). The GI50 [49] was 20.5 µM (inactive), the GI50 [50] was 27.6 µM (inactive) and the GI50 [51] was 23.2 µM (inactive). The GI50 [52] was 20.4 µM (inactive), the GI50 [53] was 14.8 µM (inactive) and the GI50 [54] was 22 µM (inactive).

CO/C(=N\N=C\c1ccc(Cl)c(Cl)c1)c1ccncc1 was tested, and the GI50 [1] was > 10 µM (inactive), the GI50 [2] was > 10 µM (inactive) and the GI50 [55] was > 10 µM (inactive). For the same compound, the GI50 [3] was > 10 µM (inactive), the GI50 [56] was > 10 µM (inactive) and the GI50 [5] was > 10 µM (inactive). For the same compound, the GI50 [7] was > 10 µM (inactive), the GI50 [8] was > 10 µM (inactive) and the GI50 [9] was > 10 µM (inactive). The GI50 [11] was > 10 µM (inactive), the GI50 [12] was 4.26 µM (inactive) and the GI50 [13] was > 10 µM. For the same compound, the GI50 [14] was > 10 µM (inactive), the GI50 [15] was > 10 µM (inactive) and the GI50 [16] was > 10 µM (inactive). The GI50 [17] was > 10 µM (inactive), the GI50 [18] was > 10 µM (inactive) and the GI50 [20] was > 10 µM (inactive). The GI50 [21] was > 10 µM (inactive), the GI50 [23] was > 10 µM (inactive) and the GI50 [25] was > 10 µM (inactive). For the same compound, the GI50 [26] was > 10 µM (inactive), the GI50 [27] was > 10 µM (inactive) and the GI50 [28] was 9.86 µM (inactive). The GI50 [29] was > 10 µM (inactive), the GI50 [31] was > 10 µM (inactive) and the GI50 [33] was > 10 µM (inactive). For the same compound, the GI50 [34] was > 10 µM (inactive), the GI50 [35] was > 10 µM (inactive) and the GI50 [37] was 2.75 µM (inactive). For the same compound, the GI50 [38] was > 10 µM (inactive), the GI50 [39] was > 10 µM (inactive) and the GI50 [40] was > 10 µM (inactive). The GI50 [41] was > 10 µM (inactive), the GI50 [42] was > 10 µM (inactive) and the GI50 [57] was > 10 µM (inactive). The GI50 [43] was > 10 µM (inactive), the GI50 [44] was > 10 µM (inactive) and the GI50 [45] was 4.99 µM (inactive). The GI50 [58] was > 10 µM (inactive), the GI50 [47] was > 10 µM (inactive) and the GI50 [49] was > 10 µM (inactive). For the same compound, the GI50 [50] was > 10 µM (inactive), the GI50 [51] was > 10 µM (inactive) and the GI50 [52] was > 10 µM (inactive). For the same compound, the GI50 [53] was > 10 µM (inactive) and the GI50 [54] was > 10 µM (inactive).

With CCCC(=O)/C=C/S/C=C/C(=O)CCC the GI50 [1] was 3.41 µM (inactive), the GI50 [3] was 4.09 µM (inactive) and the GI50 [4] was 3.26 µM (inactive). For the same compound, the GI50 [5] was 10.7 µM (inactive), the GI50 [6] was 1.71 µM (inactive) and the GI50 [8] was 3.28 µM (inactive). For the same compound, the GI50 [9] was 34.4 µM (inactive), the GI50 [11] was 15.3 µM (inactive) and the GI50 [13] was 2.36 µM. The GI50 [14] was 28.2 µM (inactive), the GI50 [15] was 2.84 µM (inactive) and the GI50 [16] was 3.18 µM (inactive). For the same compound, the GI50 [17] was 23.9 µM (inactive), the GI50 [18] was 2.28 µM (inactive) and the GI50 [19] was 3.29 µM (inactive). For the same compound, the GI50 [20] was 13.2 µM (inactive), the GI50 [21] was 3.96 µM (inactive) and the GI50 [22] was 4.84 µM (inactive). The GI50 [23] was 1.65 µM (inactive), the GI50 [24] was 5.46 µM (inactive) and the GI50 [26] was 2.23 µM (inactive). The GI50 [27] was 2.86 µM (inactive), the GI50 [28] was 27.2 µM (inactive) and the GI50 [29] was 2.51 µM (inactive). The GI50 [30] was 11.5 µM (inactive), the GI50 [31] was 5.3 µM (inactive) and the GI50 [32] was 4.67 µM (inactive). The GI50 [33] was 4.9 µM (inactive), the GI50 [34] was 4.13 µM (inactive) and the GI50 [35] was 4.09 µM (inactive). The GI50 [36] was 2.27 µM (inactive), the GI50 [38] was 4.26 µM (inactive) and the GI50 [39] was 2.65 µM (inactive). For the same compound, the GI50 [40] was 28.3 µM (inactive), the GI50 [41] was 21.6 µM (inactive) and the GI50 [57] was 11.4 µM (inactive). For the same compound, the GI50 [43] was 27.5 µM (inactive), the GI50 [45] was 2.7 µM (inactive) and the GI50 [46] was 4.42 µM (inactive). For the same compound, the GI50 [58] was 2.38 µM (inactive), the GI50 [48] was 12.2 µM (inactive) and the GI50 [49] was 14.3 µM (inactive). The GI50 [50] was 3.72 µM (inactive), the GI50 [51] was 26.9 µM (inactive) and the GI50 [52] was 21.8 µM (inactive). For the same compound, the GI50 [53] was 2.1 µM (inactive) and the GI50 [54] was 7.28 µM (inactive).
